{
  "source": "patent US20070276032A1",
  "about": "“Use of 8-Prenylnaringenin for Hormone Replacement Therapy” (priority 2003, published 2007)",
  "key": {"ovariectomized rats [1]": {"test_system": "ovariectomized rats", "test": "Ex vivo BMD (pQCT) of proximal tibia, 2S(−) 8-PN in ovariectomized rats (Example 3)", "design": "species or system Sprague-Dawley rats", "details": "animal study with synthetic relatively pure preparation", "experimental": "(§1) The aim of the study was to examine bone and uterine effects of a 4-week treatment with 2S(−) 8-Prenylnaringenin (8-PN) in 3-month-old ovariectomized rats. […] At the end of the study, uterine weight and ex vivo bone mineral density (BMD) of tibia were measured.\n(§2) A total of 30 female 13-14-week-old Sprague-Dawley rats were used in the study. The animals were randomized into 5 groups, with 6 rats/group. Group 1 was sham-operated (SHAM) and groups 2-5 were ovariectomized (OVX).\n(§3) Treatments with the vehicle or test substance started on the day following operation. […] The animals were sacrificed one day after the last dosing. At the end of the study, left tibiae were excised for ex vivo BMD measurement (pQCT) at proximal tibia and uteri were excised for the determination of absolute and relative weights. In addition, samples for the determination of 2S(−)8-Prenylnaringenin concentration were taken from all dosing solutions on the day when they were prepared and on the last day of use. The data of body weights, relative uterine weights and BMD were analyzed with one-way analysis of variance.\nBone mineral density measurement was carried out by pQCT (XCT-960A, Stratec, Germany). The bone specimens were thawed before measurement. Six 1 mm-thick sections of the proximal tibia (2 mm below the epiphyseal growth plate) were scanned at 0.5 mm intervals using a voxel size of 0.148 mm. Total and trabecular BMD (mg/cm^3) were measured. After bone densitometry, the specimens were wrapped back to saline saturated gauzes and stored at −20° C."}, "ovariectomized rats [2]": {"test_system": "ovariectomized rats", "test": "Relative uterine weight, 2S(−) 8-PN in ovariectomized rats (Example 3)", "assay_type": "in vivo, Sprague-Dawley rats", "experimental": "as §1, §2, §3\nRelative uterine weight was calculated as percentage of body weight"}, "ovariectomized rats [3]": {"test_system": "ovariectomized rats", "test": "Trabecular density of proximal tibia, 8-PN racemic, 2S(−) 8-PN and estradiol hemihydrate in ovariectomized rats (Example 4)", "assay_type": "in vivo, Sprague-Dawley rats", "details": "OVX rats; s.c. 28 days; 20 mg/kg/d in HP-β-CD", "experimental": "(§4) The aim of the study was to directly compare the effects of Prenylnaringenin (racemate) and 2S(−) 8-Prenylnaringenin to the effects of estradiol hemihydrate on bone mineral density and uterine weight on 3-month-old ovariectomized rats using identical formulations. In addition, the effects of estradiolhemihydrate in two vehicles (oily, aqueous) were examined for influence of formulations. The substances were administered subcutaneously(s.c.) seven days a week beginning the day after ovariectomy. At the end of the study, uterine weight and bone mineral density (BMD) of tibia were measured.\n(§5) Forty-one female Sprague-Dawley rats, 12-14 weeks of age were randomized into six groups, 6-8 animals in each. Five groups were ovariectomized (OVX) and one group was sham-operated (SHAM). Treatments started on the day following operation and continued for 28 days. The animals were treated s.c. once a day seven times a week as follows. Group 1 (SHAM vehicle group) and group 2 (OVX vehicle group) were given the vehicle 30% hydroxypropyl-β-cyclodextrin (HP-β-CD). Groups 3 and 4 were administered 4 μg/kg/d of estradiol hemihydrate in vehicle benzyl benzoate/ricinus oil (B/R) and in vehicle HP-β-CD, respectively. Groups 5 and 6 were given 20 mg/kg/d of 2S(−)8-Prenylnaringenin and racemic 8-Prenylnaringenin, respectively, both in vehicle HP-β-CD. At the end of the study, left tibiae were excised for the ex vivo BMD […] were taken from all dosing solutions on the first and last day of use.\n(§6) Vehicle 1 (used in the groups 1 and 2): 30% hydroxypropyl-β-cyclodextrin and 0.3% NaCl (w/v), 5% ethanol (v/v) in Aqua sterilisata, pH 7.4.\n(§7) Vehicle 2 (used when preparing dosing solutions of the groups 4, 5 and 6): 30% hydroxypropyl-β-cyclodextrin and 0.3% NaCl (w/v) in Aqua sterilisata, pH 7.4.\n(§8) Vehicle 3 (used when preparing a dosing solution of the group 3): benzyl benzoate/ricinus oil (B/R) 1+4, v/v."}, "ovariectomized rats [4]": {"test_system": "ovariectomized rats", "test": "Relative uterus weight, 8-PN racemic, 2S(−) 8-PN and estradiol hemihydrate in ovariectomized rats (Example 4)", "assay_type": "in vivo, Sprague-Dawley rats", "details": "OVX rats", "experimental": "as §4, §5, §6, §7, §8"}, "[5]": {"test": "Body weight, 8-PN racemic, 2S(−) 8-PN and estradiol hemihydrate in ovariectomized rats (Example 4)", "assay_type": "in vivo, Sprague-Dawley rats", "details": "OVX rats; s.c. once a day, 28 days; 20 mg/kg/d in HP-β-CD", "experimental": "as §4, §5, §6, §7, §8"}, "ERE-Luc": {"test_system": "ERE-Luc", "test": "Estrogenic activity in the estrogen reporter mouse ERE-Luc model, luciferase activity in organs (Example 5)", "assay_type": "in vivo, mice", "experimental": "In order to avoid experimental noise male animals were used.\nFourtyfive heterozygous male ERE-Luc mice of two months of age were fed with soy-free diet for two weeks before assigning them to each experimental group then all the mice were injected intraperitoneally (i.p.) with 250 μl of an oily solution containing the following compounds: • 1. Experimental group 1: vehicle • 2. Experimental group 2: 17β-estradiol at 1.5 μg/kg • 3. Experimental group 3: 2S(−)-8-PN at 30 mg/kg • 4. […] Experimental group 5: genistein at 30 mg/kg.\nThe treatment was carried out in experimental groups of three mice each and repeated three times (therefore numbers reflect the average of […] determinations on a total of 9 animals).\nSix hours after the injection, mice were sacrificed by cervical dislocation and organs were dissected and frozen on dry ice. The following organs were analyzed for lucifererase activity by enzymatic assay: prostate, liver, bone, brain.\nData represent means ±standard deviation of N=9 animals per group.\nAnalysis of variance (ANOVA) for overall comparison was followed by Tukey test for paired comparisons. All statistical procedures were carried out with Systat and SAS (*P<0.05; **P<0.01)."}, "[6]": {"details": "reported; cited from earlier work"}, "[7]": {"details": "at the bone loss protective dose; Miyamoto et al 1998; cited from earlier work"}, "[8]": {"details": "s.c. 28 days, 20 mg/kg/d in HP-β-CD, calculated as percentage of body weight"}},
  "note": "Values joined by “and” are separate entries in the source; they are usually repeats but may differ in a detail not shown here. Equal entries are not always repeated.",
  "data": [
    {"compound": "CC(C)=CCc1c(O)cc(O)c2c1OC(c1ccc(O)cc1)CC2=O", "note": "(racemic) [8-Prenylnaringenin, 5,7-Dihydroxy-2-(4-hydroxyphenyl)-8-(3-methylbut-2-enyl)-chroman-4-on]", "values": [
      {"measurement": "effect on bone loss", "setting": "ovariectomized rats [1]", "result": "prevents bone loss in a dose dependent manner"},
      {"measurement": "effect on uterus growth and endometrial stimulation", "setting": "ovariectomized rats [2]; animal study with synthetic relatively pure preparation", "result": "only a minimal and dose independent effect on uterus growth and endometrial stimulation"},
      {"measurement": "effect on uterus proliferation relative to that of estradiol", "setting": "ovariectomized rats [2]; doses equi-effective on protection of bone loss", "result": "less than ⅕ and 1/10"},
      {"measurement": "estrogenic effect on the uterus, equivalent oral estradiol dose", "setting": "ovariectomized rats [2]; extended to women treated with a bone protective dose", "result": "0.1 to 0.2", "unit": "mg/day"},
      {"measurement": "Trabecular density at left proximal tibia, Mean", "setting": "ovariectomized rats [3]", "result": 351, "unit": "mg/cm3"},
      {"measurement": "Trabecular density at left proximal tibia, Median", "setting": "ovariectomized rats [3]", "result": 351, "unit": "mg/cm3"},
      {"measurement": "effect on the uterus and body weight compared with estradiol in the same vehicle (HP-β-CD)", "setting": "ovariectomized rats [4]; 20 mg/kg/d vs estradiol 4 μg/kg/d, same bone effective dose", "result": "much lower effect on the uterus and body weight than estradiol at the same bone effective dose"},
      {"measurement": "Relative uterus weight, Mean", "setting": "ovariectomized rats [4]; [8]", "result": 0.066},
      {"measurement": "Relative uterus weight, Median", "setting": "ovariectomized rats [4]; [8]", "result": 0.065},
      {"measurement": "Body weight at The end (bw4b)", "setting": "[5]", "result": "289(8) g"},
      {"measurement": "The change in Body weight (bw4b-bw0)", "setting": "[5]", "result": "27(2) g"},
      {"measurement": "estrogenic effect in bone and prostate tissue relative to estradiol", "setting": "ERE-Luc; estimated at dosages leading to the same liver estrogenicity", "result": "twofold higher estrogenic effect in bone and prostate tissue than estradiol"},
      {"measurement": "Luciferase activity, Prostate", "setting": "ERE-Luc; male ERE-Luc mice, i.p. 30 mg/kg, six hours after the injection, controls 0.5", "result": "0.9 ** arbitrary units"},
      {"measurement": "estrogenic activity relative to genistein", "setting": "[6]", "result": "at least one order of magnitude higher than that of the isoflavone genistein"},
      {"measurement": "effect on uterus growth", "setting": "[7]", "result": "significant effect on uterus growth at the bone loss protective dose"}
    ]}
  ]
}
